From PubChem BioAssay (NCI)
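Test compounds were applied to cells in 96-well plates for 48 hours at 5 doses. GI50 is the concentration that inhibits growth by half. At the TGI there is no net growth.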

Assays:
Assay in all cases: growth of human tumour cells (NCI), 48 h
[1] = tested on: SF-268 CNS
[2] = tested on: RPMI-8226 leukemia
[3] = tested on: NCI-H226 lung
[4] = tested on: SN12C renal
[5] = tested on: A549 NSCLC
[6] = tested on: M14 melanoma
[7] = tested on: SK-MEL-28 melanoma
[8] = tested on: SK-OV-3 ovarian
[9] = tested on: U251 CNS
[10] = tested on: SK-MEL-2 melanoma
[11] = tested on: UACC-62 melanoma
[12] = tested on: MDA-MB-435
[13] = tested on: PC-3 prostate
[14] = tested on: IGROV1 ovarian
[15] = tested on: ACHN renal
[16] = tested on: K-562 leukemia
[17] = tested on: TK-10 renal
[18] = tested on: HCT-15 colon
[19] = tested on: BT-549 breast
[20] = tested on: NCI-H23 lung
[21] = tested on: OVCAR-8 ovarian
[22] = tested on: SW-620 colon
[23] = tested on: MOLT-4 leukemia
[24] = tested on: MALME-3M melanoma
[25] = tested on: SF-295 CNS
[26] = tested on: SR leukemia
[27] = tested on: SNB-19 CNS
[28] = tested on: LOX IMVI melanoma

With `COc1c(Cl)c2c(c(OC)c1OC)-c1ccc(SC)c(=O)cc1[C@@H](NC(=O)OCC(F)(F)F)CC2` the GI50 [1] was under 0.0105 µM, the TGI [1] was over 90.5 µM and the GI50 [2] was under 0.01 µM. It also gave a TGI [2] of 8.21 µM, a GI50 [3] of under 0.01 µM and a TGI [3] of 41.5 µM. For the same compound, the GI50 [4] was under 0.01 µM, the TGI [4] was over 100 µM and the GI50 [5] was under 0.01 µM. The TGI [5] was over 100 µM, the GI50 [6] was under 0.01 µM and the GI50 [7] was 5.99 µM. For the same compound, the TGI [7] was over 100 µM, the GI50 [8] was under 0.01 µM and the TGI [8] was over 100 µM. For the same compound, the GI50 [9] was under 0.01 µM, the TGI [9] was over 39.2 µM and the GI50 [10] was 4.2 µM. For the same compound, the TGI [10] was over 100 µM, the GI50 [11] was under 0.01 µM and the TGI [11] was 21.2 µM. The GI50 [12] was under 0.01 µM, the TGI [12] was under 0.01 µM and the GI50 [13] was under 0.01 µM. The TGI [13] was over 72.8 µM, the GI50 [14] was under 0.01 µM and the TGI [14] was over 100 µM. For the same compound, the GI50 [15] was under 0.01 µM, the TGI [15] was over 100 µM and the GI50 [16] was under 0.01 µM. The TGI [16] was over 100 µM, the GI50 [17] was 6.11 µM and the TGI [17] was over 100 µM. It also gave a GI50 [18] of under 0.01 µM, a TGI [18] of over 61.3 µM and a GI50 [19] of under 0.01 µM. For the same compound, the TGI [19] was 0.956 µM, the GI50 [20] was under 0.01 µM and the TGI [20] was over 100 µM. It also gave a GI50 [21] of under 0.01 µM, a TGI [21] of over 100 µM and a GI50 [22] of under 0.01 µM. For the same compound, the TGI [22] was over 100 µM, the GI50 [23] was under 0.01 µM and the TGI [23] was over 100 µM. For the same compound, the GI50 [24] was under 0.0104 µM, the TGI [24] was 42.6 µM and the GI50 [25] was under 0.01 µM. The TGI [25] was 2.98 µM, the GI50 [26] was under 0.01 µM and the TGI [26] was 17.9 µM. It also gave a GI50 [27] of under 0.01 µM, a TGI [27] of over 100 µM and a GI50 [28] of under 0.01 µM. For the same compound, the TGI [28] was over 100 µM.
